Data on two molecules can be found in patent US20120172453A1, “METHODS FOR TREATING NEURODEGENERATIVE DISEASES” (Coyote Pharmaceuticals, Inc., priority 2010, published 2012).

The test system of series [1] is Rat primary motor neurons. As to the kind of experiment: axon extension of rat primary motor neurons. It counts as cell-based. Conditions: Neuron, cells extending axons counted after 72 hrs, values in parenthesis, read-out: reasonable range expected for the EC50. As for the experimental part:
Rat primary motor neurons were isolated from embryonic spinal cords in accordance with the method of Henderson et al.; J Cohen and G P Wilkin (ed.), Neural Cell Culture, (1995) p69-81 which is herein incorporated by reference in its entirety. Briefly, spinal cords were dissected from day 15 embryo (E15) and incubated in a trypsin solution, and followed by DNase treatment to release spinal cord cells from tissue fragments. The cell suspension was centrifuged to remove tissue fragments. Then motor neurons were enriched by density gradient centrifugation.
Motor neurons were cultured in serum-free neurobasal medium containing insulin, forskolin, 3-isobutyl-1-methylxanthine, neurotrophic factors, Bovine serum albumin, selenium, transferrin, putrescine, progesterone and B27 supplement in tissue culture plate coated with poly-ornithine and laminin.
Rat primary motor neurons were prepared and cultured as described Example 11. […] The cells extending axons were counted in five different fields for each treatment after 72 hrs. Percentage of positive cells relative to total cells in the same magnification field was calculated and the results were expressed as means+/− standard deviations, n=5.

Series [2] has as its system Mouse Neuro2A neuroblastoma cells. As to the kind of experiment: Neuro2A cells with neurites counted after retinoic acid differentiation and GGTI-298. In kind it is cell-based. The method, then: Mouse Neuro2A neuroblastoma cells were cultured in DMEM supplemented with 10% FBS for 24 hrs. […] Then differentiation was induced by retinoic acid in DMEM supplemented with 2% FBS. An inhibitor against a G-protein, GGTI-298, was incubated. After 24 hrs incubation, cells with neurites were counted.

Turning to `CC(=O)CC/C=C(\C)CC/C=C(\C)CC/C=C(\C)CCC=C(C)C` [CNS-102, 5E,9E,13E-Geranylgeranyl acetone], the EC50 in series [1] lay within 0.5 to 2 nM.

Turning to `CC(=O)CC/C=C(/C)CC/C=C(\C)CC/C=C(\C)CCC=C(C)C` [CNS-103, 5Z,9E,13E-Geranylgeranyl acetone], the EC50 in series [1] lay within 8 to 12 nM. In addition, the “effect of a large quantity on viability of neuroblastoma cells” value in series [2] is listed as “inhibited viability of neuroblastoma cells”.
